# Key:
# [1] = biological target: T1, 3-hydroxy-3-methylglutaryl-coenzyme A reductase (Homo sapiens, UniProt P04035); assay: Inhibitory constant against HMG-CoA reductase
# T1 sequence (P04035 whole entry): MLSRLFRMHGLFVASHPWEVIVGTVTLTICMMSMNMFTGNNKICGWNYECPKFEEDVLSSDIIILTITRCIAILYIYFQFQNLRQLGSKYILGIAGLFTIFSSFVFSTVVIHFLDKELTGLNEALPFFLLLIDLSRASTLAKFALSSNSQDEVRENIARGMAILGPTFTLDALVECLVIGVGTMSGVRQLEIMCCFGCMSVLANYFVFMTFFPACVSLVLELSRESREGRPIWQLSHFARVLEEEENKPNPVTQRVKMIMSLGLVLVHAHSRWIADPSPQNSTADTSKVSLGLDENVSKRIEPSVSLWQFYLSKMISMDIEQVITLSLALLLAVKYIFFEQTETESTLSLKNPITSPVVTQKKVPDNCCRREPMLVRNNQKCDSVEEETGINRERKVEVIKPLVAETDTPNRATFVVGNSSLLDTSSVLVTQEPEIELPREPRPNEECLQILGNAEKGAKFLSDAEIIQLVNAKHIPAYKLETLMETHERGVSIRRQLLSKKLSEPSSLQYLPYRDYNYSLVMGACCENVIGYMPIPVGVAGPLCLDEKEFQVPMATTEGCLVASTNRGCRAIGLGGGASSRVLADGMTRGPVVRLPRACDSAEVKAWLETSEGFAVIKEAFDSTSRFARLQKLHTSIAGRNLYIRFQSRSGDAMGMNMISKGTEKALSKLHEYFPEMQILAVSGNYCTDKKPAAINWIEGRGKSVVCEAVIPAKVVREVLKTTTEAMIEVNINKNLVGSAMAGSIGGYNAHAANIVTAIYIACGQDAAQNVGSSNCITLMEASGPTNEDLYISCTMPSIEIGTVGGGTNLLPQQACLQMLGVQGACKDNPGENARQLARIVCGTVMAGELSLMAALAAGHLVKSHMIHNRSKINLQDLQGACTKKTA
# [2] = biological target: T1, 3-hydroxy-3-methylglutaryl-coenzyme A reductase; assay: Inhibitory concentration against HMG-CoA reductase
# [3] = biological target: T1, 3-hydroxy-3-methylglutaryl-coenzyme A reductase; assay: Inhibitory constant against HMG-CoA reductase with alpha asarone
Ki [1],IC50 [2],Ki [3],SMILES
23.5 nM,4000 nM,,CC(O)(CC(=O)O)CC(=O)O [MEGLUTOL]
0.9 nM,5.4 nM,71000 nM,CC(C)c1nc(N(C)S(C)(=O)=O)nc(-c2ccc(F)cc2)c1/C=C/[C@@H](O)C[C@@H](O)CC(=O)O [ROSUVASTATIN]
